Measured values as given in PMC7411887, “New Paracyclophanylthiazoles with Anti-Leukemia Activity: Design, Synthesis, Molecular Docking, and Mechanistic Studies” (Molecules, 2020).

How the values were obtained:
ROS in SR cells = assay: Mitochondrial production of ROS; assay type: cell-based, human; settings: 30 min at 37 °C
Protocol: Mitochondria play an essential role in the propagation of apoptosis. It is reported that, at an early stage, apoptotic stimuli are capable of modifying the mitochondrial transmembrane potential (Δψmt). Δψmt was recorded by the fluorescence of the dye JC-1.20. […] . The disruption of Δψmt is associated with the appearance of annexin V positivity in the treated cells when they are in an early apoptotic stage. It is documented that the dissipation of Δψmt is characteristic of apoptosis, and this was indicated with both microtubule-stabilizing and -destabilizing agents in different cell types. […] Mitochondrial membrane depolarization is associated with mitochondrial production of ROS [35]. Therefore, we investigated whether ROS production increased after treatment with the test compounds.
Figure 13 Mitochondrial production of ROS in SR cells with 3a and colchicine reference compared to control. […]
5. Adjust the cell concentration so at least 1 x10^4 cells should be analyzed per experimental condition. […] Mean fluorescence intensity in Ex/Em = 495/529 nm can be quantified and compared between untreated cells and cells treated with test compounds, or between different cell types. […]
4. For adherent cells: remove the ROS Label, add 100 μl of ROS Assay Buffer or PBS and measure fluorescence immediately, or treat the cells with 100 μL of diluted test compound(s) for desired period of time. […]

caspase-3 = assay: Caspase-3 ELISA on leukemia SR cell line; assay type: cell-based, human; settings: for Caspase 3 Conc: ± SD
Protocol: Since caspase-3 is important for spreading the apoptotic signal after exposure to antimitotic compounds [38], the effect of compound 3a on the caspase-3 activated enzyme was evaluated using ELISA and replicated three times. The reference compound and 3a were incubated for 30 min at room temperature in the dark on the leukemia SR cell line. […]
color. Add 50 μL of Stop solution into each well and mix thoroughly. The color changes […]
9. Read the O.D. absorbance at 450 nm in a micro-plate reader immediately after adding the
Caspase assay is performed according to the following procedures:
1. Allowing all reagents to reach room temperature before use. Gently mix all liquid reagents prior to use (Note: A standard curve must be run with each assay).
2. Determine the number of 8-well strips needed for the assay. Insert these in the frame(s) for current use. (Re-bag extra strips and frame. Store these in the refrigerator for future […]
3. Add 100 μL of the Standard Diluent Buffer to the zero standard wells. Well(s) reserved for chromogen blank should be left empty.
4. Add 100 μL of standards and controls or diluted samples to the appropriate microtiter wells. The sample dilution chosen should be optimized for each experimental system.
Tap gently on side of plate to mix.
5. Cover wells with plate cover and incubate for 2 hours at room temperature.
6. Thoroughly aspirate or decant solution from wells and discard the liquid. Wash wells 4 times. See Directions for Washing.
7. Pipette 100 μL of Caspase-3 (Active) Detection Antibody solution into each well except the chromogen blank(s). Tap gently on the side of the plate to mix.
8. Cover plate with plate cover and incubate for 1 h at room temperature.
9. Thoroughly aspirate or decant solution from wells and discard the liquid.
10. Wash wells 4 times. See Directions for Washing.
11. Add 100 μL Anti-Rabbit IgG HRP Working Solution to each well except the chromogen blank(s). Prepare the working dilution as described in Preparing IgG HRP.
12. Cover wells with the plate cover and incubate for 30 minutes at room temperature.
13. Thoroughly aspirate or decant solution from wells and discard the liquid. Wash wells 4
14. Add 100 μL of Stabilized Chromogen to each well. The liquid in the wells will begin to
15. Incubate for 30 min at room temperature and in the dark. […]
with aluminum foil or metalized mylar. The incubation time for chromogen substrate is often determined by the microtiter plate reader used. Many plate readers have the capacity to record a maximum optical density (O.D.) of 2.0. The O.D. values should be monitored and the substrate reaction stopped before the O.D. of the positive wells exceeds the limits of the instrument. The O.D. values at 450 nm can only be read after the Stop Solution has been added to each well. If using a reader that records only to 2.0 O.D., […]
16. Add 100 μL of Stop Solution to each well. Tap side of plate gently to mix. The solution in the wells should change from blue to yellow.
17. Read the absorbance of each well at 450 nm having blanked the plate reader against a chromogen blank composed of 100 μL each of Stabilized Chromogen and Stop Solution.
Read the plate within 2 hours after adding the Stop Solution.
18. Use a curve fitting software to generate the standard curve. A four-parameter algorithm provides the best standard curve fit.
19. Read the concentrations for unknown samples and controls from the standard curve.
Multiply value(s) obtained for sample(s) by the appropriate dilution factor to correct for the dilution in step 3. […]

SMILES | ROS % of control (ROS in SR cells) | level of active caspase-3 (caspase-3) | Caspase 3 Conc (caspase-3) | Caspase 3 Fold Change (caspase-3; relative to control)
COc1cc2c(c(OC)c1OC)-c1ccc(OC)c(=O)cc1[C@@H](NC(C)=O)CC2 [Colchicine, colchicine, reference compound] | 96.18% | 428.9 ng/mL | 428.9 ± 5.47 pg/mL | –
COC(=O)C=C1SC(=NNC(=O)c2cc3ccc2CCc2ccc(cc2)CC3)N(c2ccccc2)C1=O [Compound 3a] | 112.10% | 471.2 ng/mL | 471.2 ± 6.11 pg/mL | 8.84 fold
